Reference: US20100137275A1 (IPSEN PHARMA S.A.S., priority 2007, published 2010)

Assays:
[1] = biological target: T1, purified recombinant Cdc25-C enzyme (MBP-Cdc25C protein) (Homo sapiens, UniProt P30307); assay: Phosphatase activity of the purified recombinant Cdc25C enzyme (OMFP dephosphorylation, fluorescence); assay type: biochemical; conditions: OMFP 500 μM, 4 hours at 30° C.
T1 construct: made in house
T1 sequence (P30307 1-473): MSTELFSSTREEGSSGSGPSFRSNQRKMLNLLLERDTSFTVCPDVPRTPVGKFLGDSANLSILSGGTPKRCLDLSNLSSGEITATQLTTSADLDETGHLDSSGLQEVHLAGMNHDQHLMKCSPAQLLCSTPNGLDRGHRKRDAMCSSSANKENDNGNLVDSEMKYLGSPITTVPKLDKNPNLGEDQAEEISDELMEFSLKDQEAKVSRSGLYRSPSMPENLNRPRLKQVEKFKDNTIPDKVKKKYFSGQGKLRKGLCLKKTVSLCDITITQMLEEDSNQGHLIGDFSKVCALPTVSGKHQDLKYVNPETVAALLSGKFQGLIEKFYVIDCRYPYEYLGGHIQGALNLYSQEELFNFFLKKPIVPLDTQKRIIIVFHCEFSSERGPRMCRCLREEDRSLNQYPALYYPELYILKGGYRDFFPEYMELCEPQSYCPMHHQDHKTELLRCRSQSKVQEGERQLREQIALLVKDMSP
Description: The phosphatase activity of the MBP-Cdc25C protein is evaluated through its dephosphorylation of 3-O-methylfluorescein-phosphate (OMFP) to form 3-O-methylfluorescein (OMF), determining the fluorescence of the reaction product at 475 nm. This assay can be used to identify inhibitors of the recombinant Cdc25 enzyme. The preparation of the MBP-Cdc25C fusion protein is described in patent application PCT WO 01/44467.
The reaction is performed in 384-well plates in a final volume of 50 μl. The MBP-Cdc25C protein (prepared as described hereinabove) is stored in the following elution buffer: 20 mM Tris-HCl pH 7.4; 250 mM NaCl; 1 mM EDTA; 1 mM dithiothreitol (DTT); 10 mM maltose. It is diluted to a concentration of 60 μM in the following reaction buffer: 50 mM Tris-HCl pH 8.2; 50 mM NaCl; 1 mM DTT; 20% glycerol. The background noise is determined using with the buffer without addition of the enzyme. The products are tested at decreasing concentrations from 40 μM. The reaction is initiated by the addition of a solution OMFP to a final concentration of 500 μM (prepared immediately before use from a 12.5 mM stock solution in 100% DMSO (Sigma #M2629)). After 4 hours at 30° C. in a disposable 384-well plate, the fluorescence measured at OD 475 nm is read on a Victor^2 plate reader (EGG-Wallac). The concentration that produces 50% inhibition of the enzyme reaction is calculated from three independent experiments. Only the values that fall within the linear part of the sigmoid curve are used for the linear regression analysis.

Row | SMILES | melting point [°C] | IC50 [1] [µM]
1 | CN(CCNC(=S)Nc1ccc(Cl)cc1)CCNc1cc(N2CCOCC2)nc(N2CCOCC2)n1 [Example 66, N-(4-chlorophenyl)-N′-{2-[{2-[(2,6-dimorpholin-4-ylpyrimidin-4-yl)amino]ethyl}(methyl)amino]ethyl}thiourea] | 81 to 83 | 
2 | CN(CCNC(=S)Nc1c(F)c(F)c(F)c(F)c1F)CCNc1cc(N2CCCC2)nc(N2CCCC2)n1 [Example 34, N-{2-[{2-[(2,6-dipyrrolidin-1-ylpyrimidin-4-yl)amino]ethyl}(methyl)amino]ethyl}-N′-(pentafluorophenyl)thiourea] | 92 to 94 | ≤ 5
3 | CN(CCNC(=S)Nc1ccc(Cl)cc1)CCNc1cc(N2CCCC2)nc(N2CCCC2)n1 [Example 22, N-(4-chlorophenyl)-N′-{2-[{2-[(2,6-dipyrrolidin-1-ylpyrimidin-4-yl)amino]ethyl}(methyl)amino]ethyl}thiourea] | 127 to 129 | ≤ 1
4 | CN(CCNC(=S)Nc1ccc(Cl)c(C(F)(F)F)c1)CCNc1cc(N2CCCC2)nc(N2CCCC2)n1 [Example 54, N-[4-chloro-3-(trifluoromethyl)phenyl]-N′-{2-[{2-[(2,6-dipyrrolidin-1-ylpyrimidin-4-yl)amino]ethyl}(methyl)amino]ethyl}thiourea] | 117 to 119 | ≤ 5
5 | CN(CCNC(=S)Nc1ccc(Sc2ncc(C(F)(F)F)cc2Cl)cc1)CCNc1cc(N2CCCC2)nc(N2CCCC2)n1 [Example 52, N-(4-{[3-chloro-5-(trifluoromethyl)pyridin-2-yl]thio}phenyl)-N′-{2-[{2-[(2,6-dipyrrolidin-1-ylpyrimidin-4-yl)amino]ethyl}(methyl)amino]ethyl}thiourea] | 97 to 99 | ≤ 1
6 | CNS(=O)(=O)c1ccc(NC(=S)NCCN(C)CCNc2cc(N3CCCC3)nc(N3CCCC3)n2)cc1 [Example 59, 4-{[({2-[{2-[(2,6-dipyrrolidin-1-ylpyrimidin-4-yl)amino]ethyl}(methyl)amino]ethyl}amino)carbonothioyl]amino}-N-methylbenzenesulfonamide] | 102 to 104 | ≤ 1
7 | CN(CCNC(=O)NC1CCCC1)CCNc1cc(N2CCCC2)nc(N2CCCC2)n1 [Example 12, N-cyclopentyl-N′-{2-[{2-[(2,6-dipyrrolidin-1-ylpyrimidin-4-yl)amino]ethyl}(methyl)amino]ethyl}urea] | 119 to 121 | ≤ 5
8 | Cc1cc(C)nc(NS(=O)(=O)c2ccc(NC(=S)NCCN(C)CCNc3cc(N4CCCC4)nc(N4CCCC4)n3)cc2)n1 [Example 50, N-(4,6-dimethylpyrimidin-2-yl)-4-{[({2-[{2-[(2,6-dipyrrolidin-1-ylpyrimidin-4-yl)amino]ethyl}(methyl)amino]ethyl}amino)carbonothioyl]amino}benzenesulfonamide] | 129 | ≤ 1
9 | CN(CCNC(=O)NC(C)(C)C)CCNc1cc(N2CCCC2)nc(N2CCCC2)n1 [Example 9, N-(tert-butyl)-N′-{2-[{2-[(2,6-dipyrrolidin-1-ylpyrimidin-4-yl)amino]ethyl}(methyl)amino]ethyl}urea] | 107 to 109 | ≤ 5
10 | CN(CCNC(=S)Nc1ccc(Cl)cc1)CCNc1cc(N2CCCC2)nc(N2CCCC2)n1.Cl | 211 to 213 | 
11 | CN(CCCN)CCCNc1cc(N2CCCC2)nc(N2CCCC2)n1 [Example 2, N-(3-aminopropyl)-N′-(2,6-dipyrrolidin-1-ylpyrimidin-4-yl)-N-methylpropane-1,3-diamine] |  | ≤ 5
12 | CN(CCCNC(=O)Nc1ccc(Cl)c(C(F)(F)F)c1)CCCNc1cc(N2CCCC2)nc(N2CCCC2)n1.Cl | 115 to 117 | 
13 | CCN(CC)CCCCCNc1cc(N2CCCC2)nc(N2CCCC2)n1 [Example 6, N′-(2,6-dipyrrolidin-1-ylpyrimidin-4-yl)-N,N-diethylpentane-1,5-diamine] |  | ≤ 5
14 | CCNC(=O)NCCN(C)CCNc1cc(N2CCCC2)nc(N2CCCC2)n1 [Example 18] |  | ≤ 5
15 | CCN(CC)c1cc(NCCN(C)CCNC(=S)Nc2ccc(Cl)cc2)nc(N(CC)CC)n1 [Example 71, N-{2-[(2-{[2,6-bis(diethylamino)pyrimidin-4-yl]amino}ethyl)(methyl)amino]ethyl}-N′-(4-chlorophenyl)thiourea] |  | ≤ 1

The next lines start with the values.

Row | melting point [°C] | IC50 [1] [µM] | SMILES
16 | 146 to 148 |  | CN(CCNC(=O)c1cnc2ccccc2n1)CCNc1cc(N2CCCC2)nc(N2CCCC2)n1 [Example 82, N-{2-[{2-[(2,6-dipyrrolidin-1-ylpyrimidin-4-yl)amino]ethyl}(methyl)amino]ethyl}quinoxaline-2-carboxamide]
17 | 124 to 126 | ≤ 1 | CN(CCNC(=S)Nc1ccc(F)cc1F)CCNc1cc(N2CCCC2)nc(N2CCCC2)n1 [Example 40, N-(2,4-difluorophenyl)-N′-{2-[{2-[(2,6-dipyrrolidin-1-ylpyrimidin-4-yl)amino]ethyl}(methyl)amino]ethyl}thiourea]
18 |  | ≤ 5 | CNCCCN(C)CCCN(C)c1cc(N2CCCC2)nc(N2CCCC2)n1 [Example 3, N-(2,6-dipyrrolidin-1-ylpyrimidin-4-yl)-N,N′-dimethyl-N′-[3-(methylamino)propyl]propane-1,3-diamine]
19 | 127 to 129 |  | CCN(CCN(C)CCNc1cc(N2CCCC2)nc(N2CCCC2)n1)C(N)=O [Example 18, N-{2-[{2-[(2,6-dipyrrolidin-1-ylpyrimidin-4-yl)amino]ethyl}(methyl)amino]ethyl}-N-ethylurea]
20 |  | ≤ 1 | CN(CCNC(=O)Nc1ccc(Cl)c(C(F)(F)F)c1)CCNc1cc(N2CCCC2)nc(N2CCCC2)n1 [Example 7, N-[4-chloro-3-(trifluoromethyl)phenyl]-N′-{2-[{2-[(2,6-dipyrrolidin-1-ylpyrimidin-4-yl)amino]ethyl}(methyl)amino]ethyl}urea]
21 | 93 to 95 |  | CN(CCNc1cc(N2CCCC2)nc(N2CCCC2)n1)CCN(C(N)=O)[C@@H]1CCc2ccccc2C1 [Example 11, N-{2-[{2-[(2,6-dipyrrolidin-1-ylpyrimidin-4-yl)amino]ethyl}(methyl)amino]ethyl}-N-[(2R)-1,2,3,4-tetrahydronaphthalen-2-yl]urea]
22 | 140 | ≤ 1 | CN(CCNC(=S)Nc1ccc(S(N)(=O)=O)cc1)CCNc1cc(N2CCCC2)nc(N2CCCC2)n1 [Example 61, 4-{[({2-[{2-[(2,6-dipyrrolidin-1-ylpyrimidin-4-yl)amino]ethyl}(methyl)amino]ethyl}amino)carbonothioyl]amino}benzenesulfonamide]
23 | 120 to 122 | ≤ 5 | CN(CCNC(=S)NCC1CCCO1)CCNc1cc(N2CCCC2)nc(N2CCCC2)n1 (centres unmarked) [Example 31, N-{2-[{2-[(2,6-dipyrrolidin-1-ylpyrimidin-4-yl)amino]ethyl}(methyl)amino]ethyl}-N′-(tetrahydrofuran-2-ylmethyl)thiourea]
24 | 118 to 120 | ≤ 1 | CN(CCNC(=S)Nc1cccc(F)c1)CCNc1cc(N2CCCC2)nc(N2CCCC2)n1 [Example 39, N-{2-[{2-[(2,6-dipyrrolidin-1-ylpyrimidin-4-yl)amino]ethyl}(methyl)amino]ethyl}-N′-(3-fluorophenyl)thiourea]
25 | 85 to 87 |  | FC(F)(F)c1cc(NC(=S)NCCCCCNc2cc(N3CCCC3)nc(N3CCCC3)n2)ccc1Cl [Example 57, N-[4-chloro-3-(trifluoromethyl)phenyl]-N′-{5-[(2,6-dipyrrolidin-1-ylpyrimidin-4-yl)amino]pentyl}thiourea]
26 | 125 to 127 | ≤ 1 | CN(CCNC(=S)Nc1cccc([N+](=O)[O-])c1)CCNc1cc(N2CCCC2)nc(N2CCCC2)n1 [Example 49, N-{2-[{2-[(2,6-dipyrrolidin-1-ylpyrimidin-4-yl)amino]ethyl}(methyl)amino]ethyl}-N′-(3-nitrophenyl)thiourea]
27 |  | ≤ 5 | CN(C)CCCCCNc1cc(N2CCCC2)nc(N2CCCC2)n1 [Example 5, N′-(2,6-dipyrrolidin-1-ylpyrimidin-4-yl)-N,N-dimethylpentane-1,5-diamine]
28 |  | ≤ 5 | NCCCCCNc1cc(N2CCCC2)nc(N2CCCC2)n1 [Example 4, N-(2,6-dipyrrolidin-1-ylpyrimidin-4-yl)pentane-1,5-diamine]
